# Assays:
# U266 cells = assay: MTT antiproliferative assay, U266; conditions: Homo sapiens, U-266, 48 h, read-out: U266 IC50
# Description: (§1) The stock solutions of tested compounds were diluted with culture medium. […] Then, the cells were treated with compound sample at various concentrations for 48 h. Afterward, 20 MTT working solution (5 mg/ml) was added to each well and incubated for another 4 h. After incubation, the medium formed from MTT was extracted by adding DMSO (200 µl). The optical density (OD) at 490 nm and 630 nm were measured by Universal Microplate Spectrophotometer. […] The IC50 values were calculated with Origin 7.5 software (Originlab Corporation, Northampton, MA), and standard deviations of the IC50 values were obtained through at least 3 independent experiments.
# To evaluate the antiproliferative activity of hydroxamic acid containing molecules, MTT assays were performed using U937, U266, and HepG2 cell lines.
# U937 cells = assay: MTT antiproliferative assay, U937; conditions: Homo sapiens, U-937, 48 h, read-out: U937 IC50
# Description: as §1
# HepG2 cells = assay: MTT antiproliferative assay, HepG2; conditions: Homo sapiens, HepG2, 48 h, read-out: HepG2 IC50
# Description: as §1
# [1] = tested on: HDACs (HeLa nucleus extract containing a mixture of HDAC isoforms); assay: HDAC inhibitory assay with HeLa nucleus extract; conditions: at the concentration of 1 µM
IC50 (U266 cells) [nM],IC50 (U937 cells) [nM],IC50 (HepG2 cells) [nM],SMILES,"HDACs, percentage inhibition rate (PIR) [1] [%]","HDACs, percentage inhibition rate (PIR) ([1]; 1 µM) [%]"
15970 ± 140,,,"CCNNC(=O)c1ccc(NC(=O)CCCc2c[nH]c3ccccc23)cc1 [Compound I1e1, N-[4-(N′-Ethyl-hydrazinocarbonyl)-phenyl]-4-(1H-indol-3-yl)-butyramide]",50.60 ± 2.02,
1450 ± 100,,,"CCCCNNC(=O)c1ccc(NC(=O)CCCc2cn(CC)c3ccccc23)cc1 [Compound I3e3, N-[4-(N′-Butyl-hydrazinocarbonyl)-phenyl]-4-(1-ethyl-1H-indol-3-yl)-butyramide]",31.94 ± 1.51,
1280 ± 120,,,"CCCCn1cc(CCCC(=O)Nc2ccc(C(=O)NNCCC)cc2)c2ccccc21 [Compound I12e2, 4-(1-Butyl-1H-indol-3-yl)-N-[4-(N′-propyl-hydrazinocarbonyl)-phenyl]-butyramide]",39.73 ± 1.84,
16000 ± 670,,,"CC(C)CNNC(=O)c1ccc(NC(=O)CCCc2c[nH]c3ccccc23)cc1 [Compound I1e4, 4-(1H-Indol-3-yl)-N-[4-(N′-isobutyl-hydrazinocarbonyl)-phenyl]-butyramide]",7.16 ± 1.50,
640 ± 20,,,"CCCNNC(=O)c1ccc(NC(=O)CCCc2c[nH]c3ccccc23)cc1 [Compound I1e2, 4-(1H-Indol-3-yl)-N-[4-(N′-propyl-hydrazinocarbonyl)-phenyl]-butyramide]",61.34 ± 3.56,
1440 ± 310,,,"CCCCNNC(=O)c1ccc(NC(=O)CCCc2cn(CCCC)c3ccccc23)cc1 [Compound I12e3, N-[4-(N′-Butyl-hydrazinocarbonyl)-phenyl]-4-(1-butyl-1H-indol-3-yl)-butyramide]",42.76 ± 1.56,
1360 ± 60,,,"CCCCNNC(=O)c1ccc(NC(=O)CCCc2cn(C)c3ccccc23)cc1 [Compound I13e3, N-[4-(N′-Butyl-hydrazinocarbonyl)-phenyl]-4-(1-methyl-1H-indol-3-yl)-butyramide]",32.15 ± 1.03,
1060 ± 50,,,"CCCCNNC(=O)c1ccc(NC(=O)CCCc2c[nH]c3ccccc23)cc1 [Compound I1e3, N-[4-(N′-Butyl-hydrazinocarbonyl)-phenyl]-4-(1H-indol-3-yl)-butyramide]",30.47 ± 1.17,
840 ± 90,1020 ± 130,8980 ± 160,"O=C(CCCc1c[nH]c2ccccc12)Nc1ccc(C(=O)NO)cc1 [Compound I1, 4-(4-(1H-indol-3-yl)butanamido)-N-hydroxybenzamide]",53.81 ± 1.60,
480 ± 100,,,"CCCNNC(=O)c1ccc(NC(=O)CCCc2cn(CC)c3ccccc23)cc1 [Compound I3e2, 4-(1-Ethyl-1H-indol-3-yl)-N-[4-(N′-propyl-hydrazinocarbonyl)-phenyl]-butyramide]",36.51 ± 2.93,
710 ± 110,,,"CCCNNC(=O)c1ccc(NC(=O)CCCc2cn(C)c3ccccc23)cc1 [Compound I13e2, 4-(1-Methyl-1H-indol-3-yl)-N-[4-(N′-propyl-hydrazinocarbonyl)-phenyl]-butyramide]",29.68 ± 2.06,

# Second part, the compound before the results:
SMILES,IC50 (U266 cells) [nM],IC50 (U937 cells) [nM],IC50 (HepG2 cells) [nM],"HDACs, percentage inhibition rate (PIR) [1] [%]","HDACs, percentage inhibition rate (PIR) ([1]; 1 µM) [%]"
"O=C(CCCc1cn(Cc2cc(C(F)(F)F)cc(C(F)(F)F)c2)c2ccccc12)Nc1ccc(C(=O)NO)cc1 [Compound I11, 4-(4-(1-(3,5-Bis-trifluoromethyl-benzyl)-1H-indol-3-yl)butanamido)-N-hydroxybenzamide]",740 ± 50,4580 ± 230,4760 ± 610,52.24 ± 1.10,
"O=C(CCCc1cn(Cc2cccc(F)c2)c2ccccc12)Nc1ccc(C(=O)NO)cc1 [Compound I7, 4-(4-(1-(3-Fluoro-benzyl)-1H-indol-3-yl)butanamido)-N-hydroxybenzamide]",840 ± 60,950 ± 10,4870 ± 120,46.17 ± 2.94,
"O=C(CCCc1cn(Cc2c(F)cccc2F)c2ccccc12)Nc1ccc(C(=O)NO)cc1 [Compound I10, 4-(4-(1-(2,6-Difluoro-benzyl)-1H-indol-3-yl)butanamido)-N-hydroxybenzamide]",160 ± 70,630 ± 70,3390 ± 250,79.10 ± 4.65,
"O=C(CCCc1cn(Cc2cccc(Cl)c2)c2ccccc12)Nc1ccc(C(=O)NO)cc1 [Compound I9, 4-(4-(1-(3-Chloro-benzyl)-1H-indol-3-yl)butanamido)-N-hydroxybenzamide]",650 ± 40,1000 ± 150,5670 ± 60,56.68 ± 2.42,
"CCCCNNC(=O)c1ccc(NC(=O)CCCc2cn(Cc3ccccc3)c3ccccc23)cc1 [Compound I2e3, 4-(1-Benzyl-1H-indol-3-yl)-N-[4-(N′-butyl-hydrazinocarbonyl)-phenyl]-butyramide]",1710 ± 70,,,51.41 ± 2.78,
"O=C(CCCc1cn(Cc2ccc(C(F)(F)F)cc2)c2ccccc12)Nc1ccc(C(=O)NO)cc1 [Compound I4, 4-(4-(1-(4-Trifluoromethyl-benzyl)-1H-indol-3-yl)butanamido)-N-hydroxybenzamide]",960 ± 80,970 ± 40,4450 ± 250,68.50 ± 1.22,
"O=C(CCCc1cn(Cc2ccccc2C(F)(F)F)c2ccccc12)Nc1ccc(C(=O)NO)cc1 [Compound I5, 4-(4-(1-(2-Trifluoromethyl-benzyl)-1H-indol-3-yl)butanamido)-N-hydroxybenzamide]",880 ± 70,4420 ± 180,6170 ± 210,19.30 ± 1.60,
"CCn1cc(CCCC(=O)Nc2ccc(C(=O)NO)cc2)c2ccccc21 [Compound I3, 4-(4-(1-Ethyl-1H-indol-3-yl)butanamido)-N-hydroxybenzamide]",240 ± 30,940 ± 40,1920 ± 50,78.94 ± 2.34,
"CCCNNC(=O)c1ccc(NC(=O)CCCc2cn(Cc3ccccc3)c3ccccc23)cc1 [Compound I2e2, 4-(1-Benzyl-1H-indol-3-yl)-N-[4-(N′-propyl-hydrazinocarbonyl)-phenyl]-butyramide]",1110 ± 80,,,,57.46 ± 2.06
"CCCNNC(=O)c1ccc(NC(=O)CCCc2cn(Cc3cccc(F)c3)c3ccccc23)cc1 [Compound I7e2, 4-[1-(3-Fluoro-benzyl)-1H-indol-3-yl]-N-[4-(N′-propyl-hydrazinocarbonyl)-phenyl]-butyramide]",1320 ± 80,,,30.45 ± 3.38,
"CCCCn1cc(CCCC(=O)Nc2ccc(C(=O)NO)cc2)c2ccccc21 [Compound I12, 4-(4-(1-Butyl-1H-indol-3-yl)butanamido)-N-hydroxybenzamide]",120 ± 20,1010 ± 30,5760 ± 650,62.70 ± 1.63,
"O=C(CCCc1cn(Cc2cccc(Br)c2)c2ccccc12)Nc1ccc(C(=O)NO)cc1 [Compound I8, 4-(4-(1-(3-Bromo-benzyl)-1H-indol-3-yl)butanamido)-N-hydroxybenzamide]",710 ± 60,1940 ± 170,6450 ± 280,15.87 ± 3.27,
"O=C(CCCc1cn(Cc2ccccc2)c2ccccc12)Nc1ccc(C(=O)NO)cc1 [Compound I2, 4-(4-(1-benzyl-1H-indol-3-yl)butanamido)-N-hydroxybenzamide]",480 ± 90,950 ± 40,3630 ± 260,78.94 ± 3.41,
"CCCNNC(=O)c1ccc(NC(=O)CCCc2cn(Cc3c(F)cccc3F)c3ccccc23)cc1 [Compound I10e2, 4-[1-(2,6-Difluoro-benzyl)-1H-indol-3-yl]-N-[4-(N′-propyl-hydrazinocarbonyl)-phenyl]-butyramide]",740 ± 50,,,46.85 ± 2.06,
"O=C(CCCc1cn(Cc2ccc(F)c(F)c2)c2ccccc12)Nc1ccc(C(=O)NO)cc1 [Compound I6, 4-(4-(1-(3,4-Difluoro-benzyl)-1H-indol-3-yl)butanamido)-N-hydroxybenzamide]",820 ± 60,1250 ± 210,7720 ± 340,16.14 ± 1.07,
